The text below walks through data of article PMC6268252, “Synthesis and Antiviral Activity of Conformational Analogues of Leucamide A” (Molecules, 2012).

Read-outs that look alike come from different tables or passages of the source.

For data set [1], the system named is Influenza A virus H3N2 (A3 China/15/90). The data set can be described thus: Inhibition of influenza A virus replication (virus-induced CPE) in MDCK cells. The format is cell-based. To be noted: influenza A H3N2 (A3 China/15/90); for IC50: concentration required to reduce virus-induced CPE in MDCK cells by 50%; for activity against influenza A virus (in words): MDCK cells.

Data set [2] is described as follows: in vitro. To be noted: dog.
Data set [3] has as its system influenza A virus, herpes simplex type 2 virus (HSV2), hepatitis B virus (HBV). Details: method as in PMID 16183283, PMID 18663717. The settings on record: reported before; cited from earlier work.
For data set [4], the system named is several tumor cell lines. Also noted: method as in PMID 12098321. The settings on record: cited from earlier work.
The subject of data set [5] is Influenza A virus H3N2 (A3 China/15/90). Also noted: method as in PMID 16183283. To be noted: previously reported active compound; read-out: IC50 against influenza A virus; cited from earlier work.

Broadly, the IC50 is the midpoint of a concentration-inhibition curve.

For the compound `Cc1oc2nc1C(=O)N[C@@H](C)c1nc(co1)C(=O)NCCCC(=O)N[C@@H](C(C)C)c1nc-2cs1` [Compound 4], in data set [1], the IC50 amounted to 115 µM. The CC50 in data set [2] came to 595 µM.
As to `Cc1oc2nc1C(=O)N[C@@H](C)c1nc(co1)C(=O)N[C@@H](CC(C)C)C(=O)N1CCC[C@H]1C(=O)N[C@@H](C(C)C)c1nc-2cs1` [Leucamide A], in data set [1], the “activity against influenza A virus (in words)” value is “inactive”. Besides, the “antiviral activity (in words)” value in data set [3] is listed as “did not show any antiviral activity”. For the same compound, the “cytotoxicity toward tumor cell lines (in words)” value in data set [4] was “moderately cytotoxic”. Besides, in data set [2], the CC50 turned out to be 787 µM.
Take `Cc1oc2nc1C(=O)N[C@@H](C)c1nc(co1)C(=O)NCCCCC(=O)N[C@@H](C(C)C)c1nc-2cs1` [Compound 5]: the IC50 in data set [1] came to 258 µM. This compound also returned a CC50 in data set [2] of 578 µM.
On the same counts, the results for `NC(=O)c1ncn([C@@H]2O[C@H](CO)[C@@H](O)[C@H]2O)n1` [Ribavirin, reference compound] are 16 µM and over 8200 µM.
As to `COc1ccccc1C(=O)N[C@H](c1nc(-c2nc(C(=O)O)c(C)o2)cs1)C(C)C` [Compound 10], the IC50 in data set [5] is 70 µM.
As for `Cc1oc2nc1C(=O)N[C@@H](C)c1nc(co1)C(=O)NCC(=O)N[C@@H](C(C)C)c1nc-2cs1` [Compound 2], the “activity against influenza A virus (in words)” value in data set [1] is “inactive”. In data set [2], this compound returned a CC50 of over 273 µM.
`Cc1oc2nc1C(=O)N[C@@H](C)c1nc(co1)C(=O)NCCCCCC(=O)N[C@@H](C(C)C)c1nc-2cs1` [Compound 6] displayed an IC50 in data set [1] of 41 µM. For the same compound, the CC50 in data set [2] worked out at 374 µM.
On the same counts, the results for `Cc1oc2nc1C(=O)N[C@@H](C)c1nc(co1)C(=O)NCCC(=O)N[C@@H](C(C)C)c1nc-2cs1` [Compound 3] are 163 µM and over 265 µM.
